A short description of data set [1]: Clinical comparative pharmacokinetic study, 3-period cross-over, single oral doses, plasma samples. As to conditions: for AUC(0-inf) / Cmax / Tmax: human, po, 15 mg; for AUC(0-inf): read-out: AUC0-inf Geometric Least Square Mean (GLSM); for Cmax: read-out: Cmax Geometric Least Square Mean (GLSM). The data set is classed as in vivo, human. As to the method: A clinical comparative pharmacokinetic study was performed to understand the pharmacokinetic profile of metopimazine mesylate Crystal Form A in comparison to the free base of metopimazine. This study was as a 3-period, cross-over design with 3 administrations of single doses: oral formulation of metopimazine mesylate Crystal Form A fasting, oral formulation of metopimazine mesylate Crystal Form A after a high-fat breakfast, and oral formulation of metopimazine free base fasting, with a wash-out period of 48 hours between each administration. Fifteen subjects were enrolled and received each of the 3 treatment. Plasma samples from each subject were analyzed for various pharmacokinetic parameters. Mixed model repeated measures (MMRM) analysis was performed on each sample.
The second objective of this study was to compare the pharmacokinetics of metopimazine mesylate Crystal Form A administered as an oral administration of a single dose of 15 mg orally in 15 human subjects either in a fasted state or after a high fat breakfast. Plasma samples from each subject were analyzed for various pharmacokinetic parameters. […] Both Cmax and AUC are well within the 90% confidence interval.

For data set [2] the following is noted: administration before and after a high fat breakfast; cited from earlier work.
Where [3] appears, read: single oral dose 15 mg, n = 15, fasted, plasma.
Where [4] appears, read: 15 mg oral, n = 15, 90% confidence interval.
Where [5] appears, read: 15 mg oral, n = 15, 90% confidence interval, *Bioequivalence.
The mark [6] stands for this setting: plasma, 15 mg oral, n = 15, fasted.
Where [7] appears, read: plasma, 15 mg oral, n = 15, fed high fat breakfast (1030 kcal, 16% protein, 61% fat, 23% carbohydrate).

Molecules are shown by their SMILES. Entries after “also recorded” stand apart in the source; their conditions may differ. Counter-ions that a name gives are not always drawn. Like-named read-outs stand apart in the source and are kept apart here.

Turning to `CS(=O)(=O)c1ccc2c(c1)N(CCCN1CCC(C(N)=O)CC1)c1ccccc1S2` [Metopimazine free base, 1-(3-(2-(methylsulfonyl)-10H-phenothiazin-10-yl)propyl)piperidine-4-carboxamide, reference compound], in data set [1] (setting [3]), the “Tmax, Median” value was found to be 60 min and the “Tmax, Min” value was determined as 30 min. Moreover, in data set [2], the “Reduction in AUC (food effect)” value is reported as 23% and the “Reduction in Cmax (food effect)” value is given as 58%.
Take `CS(=O)(=O)c1ccc2c(c1)N(CCCN1CCC(C(N)=O)CC1)c1ccccc1S2` [Metopimazine mesylate Crystal Form A, 1-(3-(2-(methylsulfonyl)-10H-phenothiazin-10-yl)propyl)piperidine-4-carboxamide methanesulfonic acid]: in data set [1] (15 mg oral, high fat breakfast vs fasted), the “Reduction in Cmax when administered with food” value was “approximately 15%”. Further, in data set [1] (15 mg oral, n = 15), the “Change in AUC, high fat breakfast vs fasted” value is on record as “not statistical difference; also recorded: no notable change” and the “Geometric mean difference in Cmax, high fat breakfast vs fasted” value is “slightly but significantly lower”. In data set [1] (setting [4]), the “Cmax ratio fasted vs fed, Lower CI %” value was 63.82% and the “Cmax ratio fasted vs fed, Upper CI %” value is recorded as 110.75%. Besides, in data set [1] (setting [5]), the “AUC0-inf ratio fasted vs fed, Lower CI %” value is 86.00* % and the “AUC0-inf ratio fasted vs fed, Upper CI %” value is reported as 101.93* %. Besides, in data set [1] (setting [6]), the AUC(0-inf) is 64 ng·h/mL and the maximum concentration (Cmax) was 18.2 ng/mL. For the same compound, in data set [1] (setting [7]), the AUC(0-inf) was 59.9 ng·h/mL and the Cmax is 15.3 ng/mL. The Tmax in data set [1] (plasma, single oral dose 15 mg, n = 15, fasted, plasma, read-out: Tmax, Mean) turned out to be 52.2 min. For the same compound, the time to peak (Tmax) in data set [1] (plasma, single oral dose 15 mg, n = 15, fasted, plasma, read-out: Tmax, Median) came to 45 min.

The values above are taken from patent publication US10836757B1, “Polymorphic forms of metopimazine” (Neurogastrx, Inc., priority 2020, dated 2020).
